The target in this assay is T1, MLK3 (Homo sapiens, UniProt Q16584).
T1 construct: purchased Dundee DU8313
In words: Radiometric filter plate MLK3 assay. Also: 2 µM cold ATP (Km). Type of assay: biochemical. The note with it: read-out: MK3 IC50. As for the experimental part:
After a twenty minute incubation, the reactions were washed through filter plates and read on a scintillation counter. Results are shown in Table 10 below, in which +++ indicates ≦0.1 μM, ++ indicates >0.1 μM and ≦1 μM, and + indicates >1 μM.

Counter-ions that a name gives are not always drawn. Bounds are passed on as bounds.

T1 sequence (Q16584 whole entry): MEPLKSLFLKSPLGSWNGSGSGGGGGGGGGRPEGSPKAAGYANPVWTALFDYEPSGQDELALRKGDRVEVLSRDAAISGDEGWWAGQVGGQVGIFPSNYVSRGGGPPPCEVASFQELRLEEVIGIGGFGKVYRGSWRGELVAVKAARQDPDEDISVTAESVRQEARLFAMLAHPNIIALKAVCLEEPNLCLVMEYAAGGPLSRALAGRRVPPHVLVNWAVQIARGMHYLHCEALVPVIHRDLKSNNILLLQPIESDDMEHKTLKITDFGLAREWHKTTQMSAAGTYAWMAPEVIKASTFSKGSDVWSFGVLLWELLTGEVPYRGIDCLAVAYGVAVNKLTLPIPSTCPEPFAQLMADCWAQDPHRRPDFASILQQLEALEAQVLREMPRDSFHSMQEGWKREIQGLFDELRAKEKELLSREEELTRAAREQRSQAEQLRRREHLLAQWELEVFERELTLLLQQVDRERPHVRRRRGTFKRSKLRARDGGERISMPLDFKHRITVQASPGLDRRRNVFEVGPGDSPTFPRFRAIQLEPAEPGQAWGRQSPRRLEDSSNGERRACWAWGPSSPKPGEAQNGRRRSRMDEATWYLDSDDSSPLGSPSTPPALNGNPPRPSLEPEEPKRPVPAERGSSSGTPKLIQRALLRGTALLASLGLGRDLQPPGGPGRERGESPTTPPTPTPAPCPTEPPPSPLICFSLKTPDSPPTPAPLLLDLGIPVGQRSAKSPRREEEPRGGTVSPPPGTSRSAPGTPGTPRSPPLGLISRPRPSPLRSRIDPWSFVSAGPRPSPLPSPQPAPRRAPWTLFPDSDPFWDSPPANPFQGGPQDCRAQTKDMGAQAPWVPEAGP

A word on the IC50: it is the midpoint of a concentration-inhibition curve. Regarding `O=c1[nH]c2ncc(-c3ccc(O)cc3)nc2n1-c1ccc2cn[nH]c2c1` [Example 92, 6-(4-hydroxyphenyl)-1-(1H-indazol-6-yl)-1H-imidazo[4,5-b]pyrazin-2(3H)-one], the IC50 is above 1000 nM.

On to `O=c1[nH]c2ncc(-c3cc(F)c(O)c(F)c3)nc2n1-c1ccc2[nH]ccc2c1` [Example 59, 6-(3,5-difluoro-4-hydroxyphenyl)-1-(1H-indol-5-yl)-1H-imidazo[4,5-b]pyrazin-2(3H)-one], for which the IC50 was below 100 nM.

In the case of `CN1CCN(Cc2ccc(-c3cnc4[nH]cc(-c5cnc6[nH]ccc6c5)c4c3)cc2)CC1` [Example 202], the IC50 is below 100 nM.

`COc1cc(-c2cnc3[nH]c(=O)n(C4CCc5ccccc54)c3n2)cc(OC)c1OC` (centres unmarked) [Example 101, 1-(2,3-dihydro-1H-inden-1-yl)-6-(3,4,5-trimethoxyphenyl)-1H-imidazo[4,5-b]pyrazin-2(3H)-one]: the IC50 is above 1000 nM.

In the case of `COc1cc(-c2cnc3[nH]c(=O)n(-c4ccc5[nH]ccc5c4)c3n2)ccc1N` [Example 60, 6-(4-amino-3-methoxyphenyl)-1-(1H-indol-5-yl)-1H-imidazo[4,5-b]pyrazin-2(3H)-one], the IC50 was below 100 nM.

On to `c1cc2cc(-c3c[nH]c4ncc(-c5ccc(NCCN6CCCC6)nc5)cc34)ccc2[nH]1` [Example 31, 5-(3-(1H-indol-5-yl)-1H-pyrrolo[2,3-b]pyridin-5-yl)-N-(2-(pyrrolidin-1-yl)ethyl)pyridin-2-amine], for which the concentration for half-maximal inhibition (IC50) was in the range of 100 to 1000 nM.

`O=c1[nH]c2ncc(-c3ccncc3)nc2n1-c1ccc2scnc2c1` [Example 98, 1-(benzo[d]thiazol-5-yl)-6-(pyridin-4-yl)-1H-imidazo[4,5-b]pyrazin-2(3H)-one]: the IC50 is above 1000 nM.

Turning to `CN(C)c1ccc(-c2cnc3[nH]cc(-c4ccc(F)c(Cl)c4)c3c2)cn1` [Example 22, 5-(3-(3-chloro-4-fluorophenyl)-1H-pyrrolo[2,3-b]pyridin-5-yl)-N,N-dimethylpyridin-2-amine], the IC50 was above 1000 nM.

In the case of `O=c1[nH]c2ncc(-c3ccncc3)nc2n1-c1ccc2[nH]ccc2c1` [Example 44, 1-(1H-indol-5-yl)-6-(pyridin-4-yl)-1H-imidazo[4,5-b]pyrazin-2(3H)-one], the IC50 was above 1000 nM.

Take `O=C(CCO)N1CCN(Cc2ccc(-c3cnc4[nH]cc(-c5ccc6[nH]ccc6c5)c4c3)cc2)CC1` [Example 191]: the IC50 is below 100 nM.

For `COc1cc(-c2cnc3[nH]c(=O)n(-c4ccc5[nH]ccc5c4)c3n2)ccc1O` [Example 55, 6-(4-hydroxy-3-methoxyphenyl)-1-(1H-indol-5-yl)-1H-imidazo[4,5-b]pyrazin-2(3H)-one], the IC50 was below 100 nM.

Turning to `COc1cc(-c2cnc3[nH]cc(-c4ccc5[nH]ccc5c4)c3c2)ccc1OCCN(C)C` [Example 35, 2-(4-(3-(1H-indol-5-yl)-1H-pyrrolo[2,3-b]pyridin-5-yl)-2-methoxyphenoxy)-N,N-dimethylethanamine], the IC50 was above 1000 nM.

On to `O=c1[nH]c2ncc(-c3cc(Cl)cc(Cl)c3)nc2n1CC1CC1` [Example 80, 1-(cyclopropylmethyl)-6-(3,5-dichlorophenyl)-1H-imidazo[4,5-b]pyrazin-2(3H)-one], for which the IC50 is above 1000 nM.

As to `O=C1CN(Cc2ccc(-c3cnc4[nH]cc(-c5ccc6[nH]ccc6c5)c4c3)cc2)CCN1` [Example 142, 4-{4-[3-(1H-indol-5-yl)-1H-pyrrolo[2,3-b]pyridin-5-yl]-benzyl}-piperazin-2-one], the IC50 is below 100 nM.

For `O=c1[nH]c2ncc(-c3ccncc3)nc2n1CC1CC1` [Example 82, 1-(cyclopropylmethyl)-6-(pyridin-4-yl)-1H-imidazo[4,5-b]pyrazin-2(3H)-one], the IC50 is above 1000 nM.

Take `Cn1ccc2cc(-n3c(=O)[nH]c4ncc(-c5ccc(O)cc5)nc43)ccc21` [Example 42, 6-(4-hydroxyphenyl)-1-(1-methyl-1H-indol-5-yl)-1H-imidazo[4,5-b]pyrazin-2(3H)-one]: the IC50 is above 1000 nM.

As to `COc1cc(-c2cnc3c(c2)C(=Cc2cccc(C(N)=O)c2)C(=O)N3)cc(OC)c1OC` [Example 132, 3-[2-oxo-5-(3,4,5-trimethoxy-phenyl)-1,2-dihydro-pyrrolo[2,3-b]pyridin-3-ylidenemethyl]-benzamide], the IC50 is above 1000 nM.

In the case of `Nc1ccc(-c2cnc3[nH]c(=O)n(C4CCCC4)c3n2)cn1` [Example 117, 6-(6-aminopyridin-3-yl)-1-cyclopentyl-1H-imidazo[4,5-b]pyrazin-2(3H)-one], the IC50 was above 1000 nM.

`CCS(=O)(=O)N1CCN(Cc2ccc(-c3cnc4[nH]cc(-c5ccc6[nH]ccc6c5)c4c3)cc2)CC1` [Example 189]: the IC50 was below 100 nM.

`COc1cc(-c2cnc3[nH]cc(-c4ccc5[nH]ccc5c4)c3n2)ccc1OCCN1CCOCC1` [Example 39, 4-(2-(4-(7-(1H-indol-5-yl)-5H-pyrrolo[3,2-b]pyrazin-2-yl)-2-methoxyphenoxy)ethyl)morpholine]: the IC50 is below 100 nM.

For the compound `COc1cc(OC)c(-c2cnc3[nH]c(=O)n(C4CCCC4)c3n2)c(OC)c1` [Example 94, 1-cyclopentyl-6-(2,4,6-trimethoxyphenyl)-1H-imidazo[4,5-b]pyrazin-2(3H)-one], the IC50 is above 1000 nM.

As for `Cc1cc(C)cc(-c2cnc3[nH]c(=O)n(-c4ccc5scnc5c4)c3n2)c1` [Example 99, 1-(benzo[d]thiazol-5-yl)-6-(3,5-dimethylphenyl)-1H-imidazo[4,5-b]pyrazin-2(3H)-one], the IC50 is above 1000 nM.

As to `O=c1[nH]c2ncc(-c3ccc(N4CCOCC4)cc3)nc2n1-c1ccc2[nH]ncc2c1` [Example 89, 1-(1H-indazol-5-yl)-6-(4-morpholinophenyl)-1H-imidazo[4,5-b]pyrazin-2(3H)-one], the IC50 was above 1000 nM.

In the case of `COc1cc(-c2cnc3[nH]c(=O)n(C4CCCC4)c3n2)cc(OC)c1OC` [Example 74, 1-cyclopentyl-6-(3,4,5-trimethoxyphenyl)-1H-imidazo[4,5-b]pyrazin-2(3H)-one], the IC50 is below 100 nM.

With `Nc1ccc(-c2cnc3[nH]cc(-c4ccc5[nH]ccc5c4)c3c2)cc1` [Example 8, 4-(3-(1H-indol-5-yl)-1H-pyrrolo[2,3-b]pyridin-5-yl)aniline], the IC50 is below 100 nM.

Turning to `CN1CCN(Cc2ccc(-c3cnc4[nH]cc(-c5ccc6nccc(O)c6c5)c4c3)cc2)CC1` [Example 200], the IC50 is below 100 nM.

For the compound `COc1cc(-c2cc3c(-c4ccc(C(N)=O)cc4)c[nH]c3[n+]([O-])c2)cc(OC)c1OC` [Example 154, 4-[7-oxy-5-(3,4,5-trimethoxy-phenyl)-1H-pyrrolo[2,3-b]pyridin-3-yl]benzamide], the IC50 lay in the range of 100 to 1000 nM.

On to `CC(=O)Nc1ccc(-c2cnc3[nH]cc(-c4ccc5[nH]ccc5c4)c3c2)cc1` [Example 3, N-(4-(3-(1H-indol-5-yl)-1H-pyrrolo[2,3-b]pyridin-5-yl)phenyl)acetamide], for which the IC50 was below 100 nM.

For the compound `NC(=O)c1ccc(-c2c[nH]c3ncc(-c4ccc(C(=O)N5CCNCC5)cc4)cc23)cc1` [Example 149, 4-{5-[4-(piperazine-1-carbonyl)-phenyl]-1H-pyrrolo[2,3-b]pyridin-3-yl}-benzamide, hydrochloride salt], the IC50 is below 100 nM.

Consider `COc1cc(-c2cnc3[nH]cc(-c4ccc(N)cc4)c3c2)cc(OC)c1OC` [Example 15, 4-(5-(3,4,5-trimethoxyphenyl)-1H-pyrrolo[2,3-b]pyridin-3-yl)aniline], for which the IC50 is below 100 nM.

Take `CN1CCN(Cc2ccc(-c3cnc4[nH]cc(-c5ccc6[nH]ccc6c5)c4c3)cc2)CC1=O` [Example 141, 4-{4-[3-(1H-indol-5-yl)-1H-pyrrolo[2,3-b]pyridin-5-yl]-benzyl}-1-methyl-piperazin-2-one]: the IC50 was below 100 nM.

For `COc1cc(-c2cnc3[nH]cc(-c4ccc(NC(C)=O)cc4)c3c2)cc(OC)c1OC` [Example 16, N-(4-(5-(3,4,5-trimethoxyphenyl)-1H-pyrrolo[2,3-b]pyridin-3-yl)phenyl)acetamide], the IC50 was below 100 nM.

Turning to `COc1cc(-c2cnc3c(c2)C(=Cc2ccc(C#N)cc2)C(=O)N3)cc(OC)c1OC` [Example 133, 4-[2-oxo-5-(3,4,5-trimethoxy-phenyl)-1,2-dihydro-pyrrolo[2,3-b]pyridin-3-ylidenemethyl]-benzonitrile], the IC50 was above 1000 nM.

As for `COc1cc(-c2cnc3[nH]c(=O)n(C4Cc5ccccc5C4)c3n2)cc(OC)c1OC` [Example 110, 1-(2,3-dihydro-1H-inden-2-yl)-6-(3,4,5-trimethoxyphenyl)-1H-imidazo[4,5-b]pyrazin-2(3H)-one], the IC50 is below 100 nM.

With `COc1cc(-c2cnc3[nH]cc(-c4ccc(C(N)=O)cc4)c3c2)cc(OC)c1OC` [Example 25, 4-(5-(3,4,5-trimethoxyphenyl)-1H-pyrrolo[2,3-b]pyridin-3-yl)benzamide], the IC50 is below 100 nM.

Take `Nc1ccc(-c2cnc3[nH]cc(-c4ccc(F)c(Cl)c4)c3c2)cn1` [Example 29, 5-(3-(3-chloro-4-fluorophenyl)-1H-pyrrolo[2,3-b]pyridin-5-yl)pyridin-2-amine]: the IC50 is above 1000 nM.

In the case of `COc1cc(-c2cnc3[nH]cc(-c4ccc5[nH]ccc5c4)c3n2)ccc1N` [Example 38, 4-(7-(1H-indol-5-yl)-5H-pyrrolo[3,2-b]pyrazin-2-yl)-2-methoxyaniline], the IC50 is below 100 nM.

Take `CS(=O)(=O)Nc1ccc(-c2cnc3[nH]cc(-c4ccc5[nH]ccc5c4)c3c2)cc1` [Example 11, N-(4-(3-(1H-indol-5-yl)-1H-pyrrolo[2,3-b]pyridin-5-yl)phenyl)methanesulfonamide]: the IC50 was below 100 nM.

For `CNC(=O)c1ccc(-c2c[nH]c3ncc(-c4ccc(CN5CCN(C)CC5)cc4)cc23)cc1` [Example 165, N-methyl-4-{5-[4-(4-methyl-piperazin-1-ylmethyl)-phenyl]-1H-pyrrolo[2,3-b]pyridin-3-yl}-benzamide], the IC50 was below 100 nM.

As for `[2H]c1cc2cc(-c3c[nH]c4ncc(-c5ccc(CN6CCN(C)CC6)cc5)cc34)ccc2[nH]1` [Example 206], the IC50 was below 100 nM.

Take `COCCC(=O)N1CCN(Cc2ccc(-c3cnc4[nH]cc(-c5ccc6[nH]ccc6c5)c4c3)cc2)CC1` [Example 192]: the IC50 was below 100 nM.
